Data as given in patent US20130338130A1 (priority 2009, published 2013).
Read-outs that look alike come from different tables or passages of the source.

Legend:
[1] = tested on: ATCC strain 43300 Staphylococcus aureus; conditions: for recovery after enrichment in Mueller-Hinton broth: 1 cfu detection limit
Procedure: Additional antibiotic was added every 24 hours. The growth periods tested were 24 (see FIG. 4), 48, 72, 96 and 120 hours.
USP<51> Antimicrobial Effectiveness protocol was used as the template experimental paradigm. […] All concentrations were plated out to the 10^−7 dilutions to ascertain cfu/ml. […] Additional antibiotic was added at the initial concentration every 24 hours.
ATCC strain 43300 Staphylococcus aureus was streaked out for isolations. An isolated colony was chosen, streaked again and incubated. Isolate was chosen and then diluted to a McFarland standard of one. The estimated value was then taken to inoculate tubes containing growth media and 12, 30 or 60 μg/ml oxacillin with approximately 10^5 cfu/ml. These tubes were incubated and plated for counting cfu. A clone having no observed log reduction in cfu was selected for the rest of the experiment.
Material was calculated on a 10 ml volume. Sterile oxacillin was added to each experimental condition to a final concentration of 12, 30 or 60 μg/ml antibiotic.
All tubes were then inoculated with a dilution of the selected ATCC strain 43300 Staphylococcus aureus clone giving a final level of colony forming units of 3.3×10^5/ml (log=5.52). The tubes were incubated at 25° C. and mixed periodically. Antibiotic was re-inoculated every 24 hours at the initial concentration to maintain pressure on the organism. Plating was done at 24, 48, 72, and 120 hours. Each condition was plated by diluting 1 ml of growth material into 9 ml of MLB diluent broth. […] This mixture was serial diluted down to 10^−7 with 1 ml placed in triplicate in a sterile petri dish at each dilution point. 20 mls of TSA was added to each dilution, swirled and allowed to solidify. All dilutions were placed in a 35° C. incubator for 24 to 72 hours. Bacterial colonies on each plate were counted and the average taken then changed into log format. Any cfu/ml observed greater than 3.3×10^5 (log=5.5) were recorded as >3.3×10^5.
The tube was then taken out of the experiment and tested for ATCC strain 43300 Staphylococcus growth. The tube was spun down at 5000 rpm for 10 minutes. The supernatant was then decanted into 90 mls of Mueller-Hinton broth with 6 μg/ml oxacillin. This is for enrichment and the recovery of any MRSA cells that may be present whether healthy or stressed. The pellet had 10 mls Mueller-Hinton broth with 6 μg/ml oxacillin added to it to recover any cells that may be present. Both vessels were incubated at 35° C. for 48 hours followed by plating every 24 hours. Each vessel was plated at 10 dilutions to obtain a 1 cfu detection limit.

[2] = tested on: ATCC strain 43300 Staphylococcus aureus; conditions: 24 hours; for average log reduction in cfu/ml: MSM (% in label) with antibiotic (12, 30, 60 μg/ml oxacillin or methicillin)
Procedure: All concentrations were plated out to the 10^−7 dilutions to ascertain cfu/ml.
ATCC strain 43300 Staphylococcus aureus was streaked out for isolations and 25 clones were picked and diluted to a McFarland standard of one. The estimated value was then taken to inoculate tubes containing growth media and 12, 30 or 60 μg/ml methicillin or oxacillin with around 10^−7 cfu/tube.
Material was calculated on a 10 ml volume. Sterile oxacillin or methicillin was added to each experimental condition to a final concentration of 12, 30 or 60 μg/ml antibiotic.
All tubes were then inoculated with a dilution of the selected ATCC strain 43300 Staphylococcus aureus clone giving a final level of colony forming units of 9.4×10^7/ml (log=7.97). The tubes were incubated at 25° C. and mixed periodically. […] Plating was done at 24 hours. Each condition was plated by diluting 1 ml of growth material into 9 ml of MLB diluent broth. This mixture was serial diluted down to 10^−7, and 1 ml placed in a sterile petri dish at each dilution point. 20 mls of TSA was added to each dilution, swirled and allowed to solidify. All dilutions were placed in a 35° C. incubator for 24 hours. Bacterial colonies on each plate were counted and colony counts changed into log format. A positive and negative control was ascertained.

In the case of `CS(C)(=O)=O` [MSM, Methylsulfonylmethane], the “survival, Average Log” value ([1]; 30 μg/ml oxacillin + MSM (% in label), 72 hours, listed as 15% MSM) is reported as 2.4 Log, the “survival, Average Log” value ([1]; 30 μg/ml oxacillin + MSM (% in label), 72 hours, listed as 16% MSM) is reported as 1.9 Log and the “recovery after enrichment in Mueller-Hinton broth” value (“recovery after enrichment” for short) ([1]; 30 μg/ml oxacillin, 120 hours) is reported as “total kill”. For the same compound, the “survival, Average Log” value ([1]; 60 μg/ml oxacillin + MSM (% in label), 24 hours, listed as 5% MSM) was 2.54 Log, the “survival, Average Log” value ([1]; 60 μg/ml oxacillin + MSM (% in label), 24 hours, listed as 6% MSM) was 2.38 Log and the “survival, Average Log” value ([1]; 60 μg/ml oxacillin + MSM (% in label), 24 hours, listed as 7% MSM) was 2.34 Log. For the same compound, the “survival, Average Log” value ([1]; 60 μg/ml oxacillin + MSM (% in label), 24 hours, listed as 8% MSM) was 2.67 Log, the “survival, Average Log” value ([1]; 60 μg/ml oxacillin + MSM (% in label), 24 hours, listed as 9% MSM) was 2.50 Log and the “survival, Average Log” value ([1]; 60 μg/ml oxacillin + MSM (% in label), 24 hours, listed as 10% MSM) was 2.63 Log. For the same compound, the “survival, Average Log” value ([1]; 60 μg/ml oxacillin + MSM (% in label), 24 hours, listed as 11% MSM) was 2.83 Log, the “survival, Average Log” value ([1]; 60 μg/ml oxacillin + MSM (% in label), 24 hours, listed as 12% MSM) was 2.86 Log and the “survival, Average Log” value ([1]; 60 μg/ml oxacillin + MSM (% in label), 24 hours, listed as 13% MSM) was 2.80 Log. The “survival, Average Log” value ([1]; 60 μg/ml oxacillin + MSM (% in label), 24 hours, listed as 14% MSM) was 2.03 Log, the “survival, Average Log” value ([1]; 60 μg/ml oxacillin + MSM (% in label), 24 hours, listed as 15% MSM) was 3.81 Log and the “survival, Average Log” value ([1]; 60 μg/ml oxacillin + MSM (% in label), 24 hours, listed as 16% MSM) was 3.83 Log. For the same compound, the “survival, Average Log” value ([1]; 60 μg/ml oxacillin + MSM (% in label), 48 hours, listed as 5% MSM) was 3.5 Log, the “survival, Average Log” value ([1]; 60 μg/ml oxacillin + MSM (% in label), 48 hours, listed as 6% MSM) was 1.8 Log and the “survival, Average Log” value ([1]; 60 μg/ml oxacillin + MSM (% in label), 48 hours, listed as 7% MSM) was 4.0 Log. For the same compound, the “survival, Average Log” value ([1]; 60 μg/ml oxacillin + MSM (% in label), 48 hours, listed as 8% MSM) was 2.8 Log, the “survival, Average Log” value ([1]; 60 μg/ml oxacillin + MSM (% in label), 48 hours, listed as 9% MSM) was 2.2 Log and the “survival, Average Log” value ([1]; 60 μg/ml oxacillin + MSM (% in label), 48 hours, listed as 10% MSM) was 2.2 Log. For the same compound, the “survival, Average Log” value ([1]; 60 μg/ml oxacillin + MSM (% in label), 48 hours, listed as 11% MSM) was 2.1 Log, the “survival, Average Log” value ([1]; 60 μg/ml oxacillin + MSM (% in label), 48 hours, listed as 12% MSM) was 2.0 Log and the “survival, Average Log” value ([1]; 60 μg/ml oxacillin + MSM (% in label), 48 hours, listed as 13% MSM) was 1.7 Log. The “survival, Average Log” value ([1]; 60 μg/ml oxacillin + MSM (% in label), 48 hours, listed as 14% MSM) was 2.2 Log, the “survival, Average Log” value ([1]; 60 μg/ml oxacillin + MSM (% in label), 48 hours, listed as 15% MSM) was 2.1 Log and the “survival, Average Log” value ([1]; 60 μg/ml oxacillin + MSM (% in label), 48 hours, listed as 16% MSM) was 1.9 Log. For the same compound, the “survival, Average Log” value ([1]; 60 μg/ml oxacillin + MSM (% in label), 72 hours, listed as 11% MSM) was 1 Log, the “survival, Average Log” value ([1]; 60 μg/ml oxacillin + MSM (% in label), 72 hours, listed as 12% MSM) was 2.4 Log and the “survival, Average Log” value ([1]; 60 μg/ml oxacillin + MSM (% in label), 72 hours, listed as 13% MSM) was 1 Log. For the same compound, the “survival, Average Log” value ([1]; 60 μg/ml oxacillin + MSM (% in label), 72 hours, listed as 14% MSM) was 1.5 Log, the “survival, Average Log” value ([1]; 60 μg/ml oxacillin + MSM (% in label), 72 hours, listed as 16% MSM) was 1.8 Log and the “log reduction in the number of cfu/ml” value ([1]; 60 μg/ml oxacillin, 24 hours) was 3.5 log. The “recovery after enrichment” value ([1]; 60 μg/ml oxacillin, 72 hours) was “total kill”, the “recovery after enrichment” value ([1]; 60 μg/ml oxacillin, 96 hours) was “total kill” and the “recovery after enrichment” value ([1]; 60 μg/ml oxacillin, 120 hours) was “total kill”. The growth ([1]; positive 5%, 10%, and 16% MSM controls, no antibiotic, 24 hours) was “signs of turbid growth”, the “survival (Log cfu/ml)” value ([2]; 12 μg/ml methicillin + MSM (% in label), inoculum log=7.97, listed as 5% MSM) was 5.43 Log cfu/ml and the “survival (Log cfu/ml)” value ([2]; 12 μg/ml methicillin + MSM (% in label), inoculum log=7.97, listed as 6% MSM) was 5.2 Log cfu/ml. For the same compound, the “survival (Log cfu/ml)” value ([2]; 12 μg/ml methicillin + MSM (% in label), inoculum log=7.97, listed as 7% MSM) was 5.46 Log cfu/ml, the “survival (Log cfu/ml)” value ([2]; 12 μg/ml methicillin + MSM (% in label), inoculum log=7.97, listed as 8% MSM) was 5.0 Log cfu/ml and the “survival (Log cfu/ml)” value ([2]; 12 μg/ml methicillin + MSM (% in label), inoculum log=7.97, listed as 9% MSM) was 4.99 Log cfu/ml. For the same compound, the “survival (Log cfu/ml)” value ([2]; 12 μg/ml methicillin + MSM (% in label), inoculum log=7.97, listed as 10% MSM) was 4.8 Log cfu/ml, the “survival (Log cfu/ml)” value ([2]; 12 μg/ml methicillin + MSM (% in label), inoculum log=7.97, listed as 11% MSM) was 4.87 Log cfu/ml and the “survival (Log cfu/ml)” value ([2]; 12 μg/ml methicillin + MSM (% in label), inoculum log=7.97, listed as 12% MSM) was 4.89 Log cfu/ml. The “survival (Log cfu/ml)” value ([2]; 12 μg/ml methicillin + MSM (% in label), inoculum log=7.97, listed as 13% MSM) was 4.77 Log cfu/ml, the “survival (Log cfu/ml)” value ([2]; 12 μg/ml methicillin + MSM (% in label), inoculum log=7.97, listed as 14% MSM) was 4.7 Log cfu/ml and the “survival (Log cfu/ml)” value ([2]; 12 μg/ml oxacillin + MSM (% in label), listed as 5% MSM) was 5.28 Log cfu/ml. The “survival (Log cfu/ml)” value ([2]; 12 μg/ml oxacillin + MSM (% in label), listed as 6% MSM) was 5.26 Log cfu/ml, the “survival (Log cfu/ml)” value ([2]; 12 μg/ml oxacillin + MSM (% in label), listed as 7% MSM) was 5.18 Log cfu/ml and the “survival (Log cfu/ml)” value ([2]; 12 μg/ml oxacillin + MSM (% in label), listed as 8% MSM) was 5.18 Log cfu/ml. The “survival (Log cfu/ml)” value ([2]; 12 μg/ml oxacillin + MSM (% in label), listed as 9% MSM) was 5.16 Log cfu/ml, the “survival (Log cfu/ml)” value ([2]; 12 μg/ml oxacillin + MSM (% in label), listed as 10% MSM) was 4.96 Log cfu/ml and the “survival (Log cfu/ml)” value ([2]; 12 μg/ml oxacillin + MSM (% in label), listed as 11% MSM) was 4.8 Log cfu/ml. The “survival (Log cfu/ml)” value ([2]; 12 μg/ml oxacillin + MSM (% in label), listed as 12% MSM) was 4.8 Log cfu/ml, the “survival (Log cfu/ml)” value ([2]; 12 μg/ml oxacillin + MSM (% in label), listed as 13% MSM) was 4.9 Log cfu/ml and the “survival (Log cfu/ml)” value ([2]; 12 μg/ml oxacillin + MSM (% in label), listed as 14% MSM) was 4.88 Log cfu/ml. For the same compound, the “survival (Log cfu/ml)” value ([2]; 30 μg/ml methicillin + MSM (% in label), listed as 9% MSM) was 5.07 Log cfu/ml, the “survival (Log cfu/ml)” value ([2]; 30 μg/ml methicillin + MSM (% in label), listed as 10% MSM) was 4.8 Log cfu/ml and the “survival (Log cfu/ml)” value ([2]; 30 μg/ml methicillin + MSM (% in label), listed as 11% MSM) was 4.8 Log cfu/ml. The “survival (Log cfu/ml)” value ([2]; 30 μg/ml methicillin + MSM (% in label), listed as 12% MSM) was 4.7 Log cfu/ml, the “survival (Log cfu/ml)” value ([2]; 30 μg/ml methicillin + MSM (% in label), listed as 13% MSM) was 4.7 Log cfu/ml and the “survival (Log cfu/ml)” value ([2]; 30 μg/ml methicillin + MSM (% in label), listed as 14% MSM) was 4.6 Log cfu/ml. The “survival (Log cfu/ml)” value ([2]; 30 μg/ml methicillin + MSM (% in label), listed as 15% MSM) was 4.54 Log cfu/ml, the “survival (Log cfu/ml)” value ([2]; 30 μg/ml methicillin + MSM (% in label), listed as 16% MSM) was 4.47 Log cfu/ml and the “survival (Log cfu/ml)” value ([2]; 30 μg/ml oxacillin + MSM (% in label), listed as 9% MSM) was 5.02 Log cfu/ml. The “survival (Log cfu/ml)” value ([2]; 30 μg/ml oxacillin + MSM (% in label), listed as 10% MSM) was 4.99 Log cfu/ml, the “survival (Log cfu/ml)” value ([2]; 30 μg/ml oxacillin + MSM (% in label), listed as 11% MSM) was 4.94 Log cfu/ml and the “survival (Log cfu/ml)” value ([2]; 30 μg/ml oxacillin + MSM (% in label), listed as 12% MSM) was 4.87 Log cfu/ml. The “survival (Log cfu/ml)” value ([2]; 30 μg/ml oxacillin + MSM (% in label), listed as 13% MSM) was 4.9 Log cfu/ml, the “survival (Log cfu/ml)” value ([2]; 30 μg/ml oxacillin + MSM (% in label), listed as 14% MSM) was 4.82 Log cfu/ml and the “survival (Log cfu/ml)” value ([2]; 30 μg/ml oxacillin + MSM (% in label), listed as 15% MSM) was 4.74 Log cfu/ml. For the same compound, the “survival (Log cfu/ml)” value ([2]; 30 μg/ml oxacillin + MSM (% in label), listed as 16% MSM) was 4.59 Log cfu/ml, the “average log reduction in cfu/ml” value ([2]; listed as 5% MSM) was 2.2 log and the “average log reduction in cfu/ml” value ([2]; listed as 16% MSM) was 3.3 log. The colony numbers ([2]; MSM without antibiotic control condition) was “greater colony numbers than what was initially inoculated”.
